The values that follow come from patent publication US10941147B2, “Bicyclic heteroaryl derivatives” (Hoffmann-La Roche Inc., priority 2016, dated 2021).

This assay deals with T1, γ-secretase (Homo sapiens, UniProt P49768).
T1 construct: Human neuroglioma H4 cells overexpressing human APP695; endogenous in cells; host or cells: human neuroglioma H4 cells stably overexpressing human APP695 Swedish
The assay can be described thus: Cellular γ-secretase assay (inhibition of Aβ42 secretion, AlphaLisa). The class given is cell-based. Particulars: Human neuroglioma H4 cells overexpressing human APP695 Swedish double mutation; 24 hr compound incubation; secreted Aβ42 in supernatant. The method, then: Description of γ-Secretase Assay
Cellular γ-Secretase Assay
Human neuroglioma H4 cells overexpressing human APP695 with the Swedish double mutation (K595N/M596L) were plated at 30,000 cells/well/100 al in 96-well plates in IMDM media containing 10% FCS, […] Hygromycin B and incubated at 37° C., 5% CO2.
3-4 hr post plating, compounds are a diluted in media and 50 μl is added as 1.5-fold concentrate to achieve the final concentration. Compound incubation is performed for 24 hr. Final doses typically range from 4 μM down to 0.0013 μM in half-log steps resulting in a eight point dose response curve.
Appropriate controls using vehicle only and reference compound were applied to this assay. The final concentration of Me2SO was 0.4%.
After incubation at 37° C., 5% CO2, the supernatant was subjected to quantification of secreted Aβ42 by the means of an AlphaLisa assay kit (Human Amyloid beta 1-42 Kit: Cat #AL203C, Perkin Elmer). 20 μl of the cell culture supernatant was transferred to an assay plate. Then 10 μl of a mixture of the AlphaLisa coupled capture antibody and the biotinylated detection antibody was added and incubated for 3 hours at room temperature while softly shaking the assay plate. After a further addition of 20 μl of the Donor beads the assay plate was incubated for 30 min at room temperature and constant shaking without exposure to direct light. The assay plate was then read on a Paradigm AlphaLisa Reader using the build-in program with excitation at 680 nm and emission at […].
The measured signals were then used to calculate IC50 values for inhibition of Aβ42 secretion by nonlinear regression fit analysis using XLfit 5.3 software (IDBS).
As to `FC(F)(F)c1cc(N2C[C@H]3CC[C@@H](C2)[C@@H]3Nc2nc3n(n2)CCCCC3c2ccc(Cl)cc2)ccn1` (stereo partly drawn) [Example 6, 9-(4-chlorophenyl)-N-[(1R,5S,8S)-3-[2-(trifluoromethyl)-4-pyridyl]-3-azabicyclo[3.2.1]octan-8-yl]-6,7,8,9-tetrahydro-5H-[1,2,4]triazolo[1,5-a]azepin-2-amine], the 50% effective concentration (EC50) (usually the concentration that produces a half-maximal response) worked out at 50.6 nM.

The molecule `Fc1ccc(C2CCCCn3nc(N[C@@H]4[C@@H]5CC[C@H]4CN(c4cc(Cl)ncn4)C5)nc32)c(F)c1F` (mixture of isomers) [Example 17, N-[(1R,5S,8S)-3-(6-chloropyrimidin-4-yl)-3-azabicyclo[3.2.1]octan-8-yl]-9-(2,3,4-trifluorophenyl)-6,7,8,9-tetrahydro-5H-[1,2,4]triazolo[1,5-a]azepin-2-amine] had an EC50 of 17.7 nM.

The molecule `Cc1cc(N2C[C@H]3CC[C@@H](C2)[C@@H]3Nc2nc3n(n2)CCCC[C@@H]3c2ccc(Cl)cc2)ncn1` [Example 9, (9R)-9-(4-chlorophenyl)-N-[(1R,5S,8S)-3-(6-methylpyrimidin-4-yl)-3-azabicyclo[3.2.1]octan-8-yl]-6,7,8,9-tetrahydro-5H-[1,2,4]triazolo[1,5-a]azepin-2-amine] displayed an EC50 of 48.9 nM.

The molecule `Fc1ccc([C@@H]2CCCCn3nc(N[C@@H]4[C@@H]5CC[C@H]4CN(c4cc(Cl)ncn4)C5)nc32)c(F)c1F` [Example 18, (9S)—N-[(1R,5S,8S)-3-(6-chloropyrimidin-4-yl)-3-azabicyclo[3.2.1]octan-8-yl]-9-(2,3,4-trifluorophenyl)-6,7,8,9-tetrahydro-5H-[1,2,4]triazolo[1,5-a]azepin-2-amine] yielded an EC50 of 12.4 nM.

In turn, `Cc1cc(N2C[C@H]3CC[C@@H](C2)[C@@H]3Nc2nc3n(n2)CCCCC3c2ccc(C(F)(F)F)cc2)ncn1` (mixture of isomers) [Example 3, N-[(1R,5S,8S)-3-(6-methylpyrimidin-4-yl)-3-azabicyclo[3.2.1]octan-8-yl]-9-[4-(trifluoromethyl)phenyl]-6,7,8,9-tetrahydro-5H-[1,2,4]triazolo[1,5-a]azepin-2-amine] displayed a concentration giving a half-maximal response (EC50) of 20.6 nM.

Molecule `FC(F)(F)c1ccc(C2CCCCn3nc(N[C@@H]4[C@@H]5CC[C@H]4CN(c4ccnc(C(F)(F)F)c4)C5)nc32)cc1` (stereo partly drawn) [Example 2, 9-[4-(trifluoromethyl)phenyl]-N-[(1R,5S,8S)-3-[2-(trifluoromethyl)-4-pyridyl]-3-azabicyclo[3.2.1]octan-8-yl]-6,7,8,9-tetrahydro-5H-[1,2,4]triazolo[1,5-a]azepin-2-amine] registered a concentration giving a half-maximal response (EC50) of 48.4 nM.

Molecule `Cc1ncnc(N2C[C@H]3CC[C@@H](C2)[C@@H]3Nc2nc3n(n2)CCCCC3c2ccc(F)c(F)c2F)c1F` (stereo partly drawn) [Example 22, N-[(1R,5S,8S)-3-(5-fluoro-6-methyl-pyrimidin-4-yl)-3-azabicyclo[3.2.1]octan-8-yl]-9-(2,3,4-trifluorophenyl)-6,7,8,9-tetrahydro-5H-[1,2,4]triazolo[1,5-a]azepin-2-amine] yielded an EC50 of 30.3 nM.

`Cc1cc(N2C[C@H]3CC[C@@H](C2)[C@@H]3Nc2nc3n(n2)CCCCC3c2ccc(Cl)cc2)ncn1` (mixture of isomers) [Example 7, 9-(4-chlorophenyl)-N-[(1R,5S,8S)-3-(6-methylpyrimidin-4-yl)-3-azabicyclo[3.2.1]octan-8-yl]-6,7,8,9-tetrahydro-5H-[1,2,4]triazolo[1,5-a]azepin-2-amine] returned an EC50 of 23.4 nM.

Molecule `Cc1cc(N2C[C@H]3CC[C@@H](C2)[C@@H]3Nc2nc3n(n2)CCCCC3c2ccc(F)c(F)c2F)ncn1` (mixture of isomers) [Example 14, N-[(1R,5S,8S)-3-(6-methylpyrimidin-4-yl)-3-azabicyclo[3.2.1]octan-8-yl]-9-(2,3,4-trifluorophenyl)-6,7,8,9-tetrahydro-5H-[1,2,4]triazolo[1,5-a]azepin-2-amine] showed an EC50 of 12.6 nM.
